Results: patent US7683073B2, “Isoquinoline-1,3,4-trione compounds, the synthetic method and the use thereof” (Shanghai Institute of Materia Medica, Chinese Academy of …, priority 2005, dated 2010)

Assays:
PC12 cells [1] = test: Morphological comparison of PC12 cells treated with Aβ and caspase-3 inhibitors; conditions: inhibitor alone; 28 μM chen-1, 200 nM Ac-Asp-Glu-Val-Asp-aldehyde; phase contrast microscope, 72 hours
Method: Culture of cells: PC 12 cells were obtained from XiCan Tang of Institute of Material Medica, CAS. Media were DMEM(HG) containing 10% calf serum. PC12 were incubated in an incubator with constant temperature with 5% carbon dioxide at 37° C. The cells were inoculated in Petri dishes and 96-well plates in the amount […], the compounds of the present invention were added into after 12 hours, and […] of apoptosis inducer, Aβ25-35, was added after 24 hours.

PC12 cells [2] = test: Flow cytometry detection of apoptotic PC12 cells (propidium iodide, sub-G1); type: cell-based
Method: Media were DMEM(HG) containing 10% calf serum.
2×10^6 cells were collected at different time respectively after PC12 were treated in the same method. Cell precipitation was washed twice with PBR, followed by adding ice ethanol, and the resulting solution was blown to disperse the cells into single, fixed for 2 hours at 4° C. Before staining, the solution was centrifuged at 300 rpm for 10 minutes, and the supernatant was discarded, then the precipitation was washed twice with PBR to remove ethanol substantially. Into the cell precipitation was added a staining solution (containing 0.1% TritonX-100, 0.1 mM EDTApH7.4, 0.01 mg/ml RNase A, 50 μg/ml propidium iodide). Cell fluorescence was detected with flow cytometry after the cells in staining solution for 30 minutes at 4° C. away from light, and percentage and cycle of apoptotic cells were calculated by analyzing DNA content. The results were obtained by flow cytometry laboratory of Institute of Biochemistry and Cell Biology, CAS.
As illustrated from the above results, it may be seen that caspase-3 inhibitors could protect PC12 markedly and resist apoptosis of PC12 mediated by neurotoxicity of Aβ of Aβ25-35, and they have no toxicity in low concentration themselves.

[3] = Aβ25-35 and inhibitor (2 μM Ac-DEVD-CHO, 28 μM Chen-1) in the medium at the same time
[4] = only caspase-3 inhibitor added, no Aβ25-35, after 72 hours

Compound | toxic effect on PC12 cells (morphology) (PC12 cells [1]) | percentage of apoptotic cells (PC12 cells [2]; [3]) | percentage of apoptotic cells (PC12 cells [2]; [4])
O=C1NC(=O)c2ccccc2C1=O [Chen-1] | no toxic effect | 4.09% | 2.15%
CC(=O)N[C@@H](CC(=O)O)C(=O)N[C@@H](CCC(=O)O)C(=O)N[C@H](C(=O)N[C@H](C=O)CC(=O)O)C(C)C [Ac-DEVD-CHO, Ac-Asp-Glu-Val-Asp-aldehyde] | no toxic effect | 4.01% | 2.27%
